Laboratory results as given in PubChem BioAssay (NCI).
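A five-concentration, 48-hour dose response in 96-well plates underlies each endpoint, interpolated linearly between surrounding concentrations. At the GI50, growth is halved. TGI marks complete inhibition of growth.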

Key:
Test in all cases: growth of human tumour cells (NCI), 48 h
[1] = system: 786-0 renal
[2] = system: A498 renal
[3] = system: A549 NSCLC
[4] = system: ACHN renal
[5] = system: BT-549 breast
[6] = system: CAKI-1 renal
[7] = system: COLO 205 colon
[8] = system: DU-145 prostate
[9] = system: EKVX NSCLC
[10] = system: HCC-2998 colon
[11] = system: HCT-116 colon
[12] = system: HCT-15 colon
[13] = system: HL-60(TB) leukemia
[14] = system: HOP-62 NSCLC
[15] = system: HOP-92 NSCLC
[16] = system: HS 578T breast
[17] = system: HT29 colon
[18] = system: IGROV1 ovarian
[19] = system: K-562 leukemia
[20] = system: KM12 colon
[21] = system: LOX IMVI melanoma
[22] = system: M14 melanoma
[23] = system: MALME-3M melanoma
[24] = system: MCF7 breast
[25] = system: MDA-MB-231 breast
[26] = system: MDA-MB-435
[27] = system: MOLT-4 leukemia
[28] = system: NCI-H226 lung
[29] = system: NCI-H522 lung
[30] = system: NCI/ADR-RES ovarian
[31] = system: OVCAR-3 ovarian
[32] = system: OVCAR-4 ovarian
[33] = system: OVCAR-5 ovarian
[34] = system: OVCAR-8 ovarian
[35] = system: PC-3 prostate
[36] = system: RPMI-8226 leukemia
[37] = system: RXF 393 renal
[38] = system: SF-268 CNS
[39] = system: SF-295 CNS
[40] = system: SF-539 CNS
[41] = system: SK-MEL-2 melanoma
[42] = system: SK-MEL-28 melanoma
[43] = system: SK-MEL-5 melanoma
[44] = system: SK-OV-3 ovarian
[45] = system: SN12C renal
[46] = system: SNB-19 CNS
[47] = system: SNB-75 CNS
[48] = system: SR leukemia
[49] = system: SW-620 colon
[50] = system: T-47D breast
[51] = system: TK-10 renal
[52] = system: U251 CNS
[53] = system: UACC-257 melanoma
[54] = system: UACC-62 melanoma
[55] = system: UO-31 renal

CCOC(=O)Cc1csc(NC(=O)COC(=O)c2ccc(N)cc2)n1
GI50 [1]: 23.8 µM | TGI [1]: 56.9 µM | GI50 [2]: > 100 µM | TGI [2]: > 100 µM | GI50 [3]: > 100 µM | TGI [3]: > 100 µM | GI50 [4]: > 100 µM | TGI [4]: > 100 µM | GI50 [5]: > 100 µM | TGI [5]: > 100 µM | GI50 [6]: > 100 µM | TGI [6]: > 100 µM | GI50 [7]: > 100 µM | TGI [7]: > 100 µM | GI50 [8]: > 100 µM | TGI [8]: > 100 µM | GI50 [9]: > 100 µM | TGI [9]: > 100 µM | GI50 [10]: > 100 µM | TGI [10]: > 100 µM | GI50 [11]: > 100 µM | TGI [11]: > 100 µM | GI50 [12]: > 100 µM | TGI [12]: > 100 µM | GI50 [13]: 20 µM | TGI [13]: 41.3 µM | GI50 [14]: > 100 µM | TGI [14]: > 100 µM | GI50 [15]: 20.7 µM | TGI [15]: 44.8 µM | GI50 [16]: > 100 µM | TGI [16]: > 100 µM | GI50 [17]: 56.9 µM | TGI [17]: > 100 µM | GI50 [18]: 21.8 µM | TGI [18]: 49.8 µM | GI50 [19]: 88.3 µM | TGI [19]: > 100 µM | GI50 [20]: > 100 µM | TGI [20]: > 100 µM | GI50 [21]: 14.1 µM | TGI [21]: 34.6 µM | GI50 [22]: > 100 µM | TGI [22]: > 100 µM | GI50 [23]: > 100 µM | TGI [23]: > 100 µM | GI50 [24]: 97.9 µM | TGI [24]: > 100 µM | GI50 [25]: > 100 µM | TGI [25]: > 100 µM | GI50 [26]: > 100 µM | TGI [26]: > 100 µM | GI50 [27]: 28.5 µM | TGI [27]: 81.4 µM | GI50 [28]: > 100 µM | TGI [28]: > 100 µM | GI50 [29]: 18.8 µM | TGI [29]: 40 µM | GI50 [30]: > 100 µM | TGI [30]: > 100 µM | GI50 [31]: 18.8 µM | TGI [31]: 50.7 µM | GI50 [32]: 72 µM | TGI [32]: > 100 µM | GI50 [33]: 59.3 µM | TGI [33]: > 100 µM | GI50 [34]: 95.7 µM | TGI [34]: > 100 µM | GI50 [35]: 68.4 µM | TGI [35]: > 100 µM | GI50 [36]: 40.4 µM | TGI [36]: > 100 µM | GI50 [37]: > 100 µM | TGI [37]: > 100 µM | GI50 [38]: 23.6 µM | TGI [38]: 60 µM | GI50 [39]: > 100 µM | TGI [39]: > 100 µM | GI50 [40]: 19.3 µM | TGI [40]: 37 µM | GI50 [41]: > 100 µM | TGI [41]: > 100 µM | GI50 [42]: > 100 µM | TGI [42]: > 100 µM | GI50 [43]: 97.6 µM | TGI [43]: > 100 µM | GI50 [44]: > 100 µM | TGI [44]: > 100 µM | GI50 [45]: > 100 µM | TGI [45]: > 100 µM | GI50 [46]: > 100 µM | TGI [46]: > 100 µM | GI50 [47]: 54.4 µM | TGI [47]: > 100 µM | GI50 [48]: 13.4 µM | TGI [48]: 45.2 µM | GI50 [49]: > 100 µM | TGI [49]: > 100 µM | GI50 [50]: 75.4 µM | TGI [50]: > 100 µM | GI50 [51]: > 100 µM | TGI [51]: > 100 µM | GI50 [52]: > 100 µM | TGI [52]: > 100 µM | GI50 [53]: > 100 µM | TGI [53]: > 100 µM | GI50 [54]: > 100 µM | TGI [54]: > 100 µM | GI50 [55]: 76.6 µM | TGI [55]: > 100 µM
